US10829427B2, “Naphthoquinones, pro-drugs, and methods of use thereof” (The Board of Regents of the University of Texas System, priority 2015, dated 2020)

Each compound was assayed on A549 cells (assay: Cell viability in A549 cells (7-day DNA assay)). Conditions: relative to β-lapachone.
Assay type: cell-based, human
Procedure: (§1) In vitro anti-cancer activity of the compound were performed using ATP Assay Kit (Abcam, ab83355) to initially screen, and further performed using 7-day DNA assay.
(§2) Cell culture: endogenous NQO1 overexpressing human MIA PaCa-2 pancreactic and A549 NSCLC cancer cells were obtained (Bey, et al., 2007; Li, et al., 2011). Cancer cells were grown in DMEM with 5% FBS and Mycoplasma free, and cultured at 37° C. in a 5% CO2 95% air humidified atmosphere.
DNA assay: Cells were seeded into each well of a 48-well plate (10000 cells/well) 24 hours ahead of experiment. After aspiration of the media from each well, 500 μl drug-contained media was added instead, and further incubated for 2 hours. Drugs were then removed, control growth medium was added, and cells were allowed to grow for an additional 7 days. Drugs were added to medium at a 1:1000 dilution immediately before administration to cells. DNA content (a measure of cell growth) was determined by fluoresence of the DNA dye Hoescht 33258 (Sigma), and read in a Cytofluor fluoresence plate reader. Data were expressed as relative growth with 6 repetitions.
CC(C)OC1=CC(=O)C(=O)c2ccc(Cl)cc21 [Compound 34, 6-chloro-4-isopropoxynaphthalene-1,2-dione] was tested, and the “IC50/IC50 (β-lapachone/Compoud)” value was 0.3~1.

These compounds were tested on Mia PaCa-2 cells (assay: ATP assay (ATP depletion / cell viability) in Mia PaCa-2 cells). Conditions: Relative activity compare with β-lapachone in ATP depletion of Mia PaCa-2 cells.
Assay type: cell-based, human
Procedure: as §1, §2
ATP assay: Cells were seeded into each well of a 96-well plate (15000 cells/well) 18 hours ahead of experiment. After aspiration of the media from each well, 100 μl drug-contained media was added instead, and further incubated for 2 hours. After incubation, 100 μl ATP assay kit mixture was added into every well. Following further shaking for 10 minutes with light proof, the data were collected by reading luminescence integrate 1 second per well.
CC(C)OC1=CC(=O)C(=O)c2ccc(Cl)cc21 [Compound 34, 6-chloro-4-isopropoxynaphthalene-1,2-dione] was tested, and the “IC50/IC50 (β-lapachone/Compoud)” value was 1~2. In the case of CC(C)OC1=CC(=O)c2cccc(NS(C)(=O)=O)c2C1=O [Compound 22, N-(7-isopropoxy-5,8-dioxo-5,8-dihydronaphthalen-1-yl)methanesulfonamide], the “IC50/IC50 (β-lapachone/Compoud)” value is reported as <0.3. For O=C1C=C(OC2CCCCC2)c2cccc(Cl)c2C1=O [Compound 16, 8-chloro-4-(cyclohexyloxy)naphthalene-1,2-dione], the “IC50/IC50 (β-lapachone/Compoud)” value was 0.3~1. With O=C1C=C(OC2CCCCC2)c2cc(Cl)ccc2C1=O [Compound 35, 6-chloro-4-(cyclohexyloxy)naphthalene-1,2-dione] the “IC50/IC50 (β-lapachone/Compoud)” value was 0.3~1. In the case of CC(C)OC1=C(Br)C(=O)C(=O)c2ccccc21 [Compound 11, 3-bromo-4-isopropoxynaphthalene-1,2-dione], the “IC50/IC50 (β-lapachone/Compoud)” value is reported as <0.3. CC(C)OC1=CC(=O)C(=O)c2cccc(Br)c21 [Compound 32, 5-bromo-4-isopropoxynaphthalene-1,2-dione] was tested, and the “IC50/IC50 (β-lapachone/Compoud)” value was <0.3. CC(C)OC1=CC(=O)C(=O)c2c(NC(=O)C(F)(F)F)cccc21 [Compound 19, 2,2,2-trifluoro-N-(5-isopropoxy-7,8-dioxo-7,8-dihydronaphthalen-1-yl)acetamide] was tested, and the “IC50/IC50 (β-lapachone/Compoud)” value was <0.3. With CC(C)OC1=CC(=O)C(=O)c2cccc(O)c21 [Compound 40, 5-hydroxy-4-isopropoxynaphthalene-1,2-dione] the “IC50/IC50 (β-lapachone/Compoud)” value was <0.3. With CC(C)OC1=CC(=O)C(=O)c2cccc(Cl)c21 [Compound 6, 5-chloro-4-isopropoxynaphthalene-1,2-dione] the “IC50/IC50 (β-lapachone/Compoud)” value was <0.3. For CC(C)OC1=CC(=O)C(=O)c2c(N)cccc21 [Compound 29, 8-amino-4-isopropoxynaphthalene-1,2-dione], the “IC50/IC50 (β-lapachone/Compoud)” value was <0.3. In the case of COC1=CC(=O)C(=O)c2c(NC(C)=O)cccc21 [Compound 46, N-(5-methoxy-7,8-dioxo-7,8-dihydronaphthalen-1-yl)acetamide], the “IC50/IC50 (β-lapachone/Compoud)” value is reported as 1~3. With CC(C)OC1=CC(=O)C(=O)c2cccc([N+](=O)[O-])c21 [Compound 7, 4-isopropoxy-5-nitronaphthalene-1,2-dione] the “IC50/IC50 (β-lapachone/Compoud)” value was 0.3~1. For CC(C)OC1=C(Br)C(=O)c2ccccc2C1=O [Compound 12, 2-bromo-3-isopropoxynaphthalene-1,4-dione], the “IC50/IC50 (β-lapachone/Compoud)” value was <0.3. For COc1cc2c(cc1OC)C(OC(C)C)=CC(=O)C2=O [Compound 8, 4-isopropoxy-6,7-dimethoxynaphthalene-1,2-dione], the “IC50/IC50 (β-lapachone/Compoud)” value was <0.3. For CC(=O)Nc1cccc2c1C(=O)C(OCCN(C)C)=CC2=O [Compound 45, N-(7-(2-(dimethylamino)ethoxy)-5,8-dioxo-5,8-dihydronaphthalen-1-yl)acetamide], the “IC50/IC50 (β-lapachone/Compoud)” value was 1~2. For CCCCCCOC1=CC(=O)C(=O)c2c(NS(C)(=O)=O)cccc21 [Compound 54, N-(5-(hexyloxy)-7,8-dioxo-7,8-dihydronaphthalen-1-yl)methanesulfonamide], the “IC50/IC50 (β-lapachone/Compoud)” value was <0.3. For CC(=O)Nc1cccc2c1C(=O)C(=O)C=C2OCCN1CCOCC1 [Compound 43, N-(5-(2-morpholinoethoxy)-7,8-dioxo-7,8-dihydronaphthalen-1-yl)acetamide], the “IC50/IC50 (β-lapachone/Compoud)” value was 0.3~1. CC(C)OC1=CC(=O)C(=O)c2ccc(NC(=O)OC(C)(C)C)cc21 [Compound 33, tert-butyl (8-isopropoxy-5,6-dioxo-5,6-dihydronaphthalen-2-yl)carbamate] was tested, and the “IC50/IC50 (β-lapachone/Compoud)” value was <0.3. In the case of O=C1C=C(OC2CCCCC2)c2ccc(Cl)cc2C1=O [Compound 5, 7-chloro-4-(cyclohexyloxy)naphthalene-1,2-dione], the “IC50/IC50 (β-lapachone/Compoud)” value is reported as <0.3. For CC(=O)Nc1cccc2c1C(=O)C(=O)C=C2OC1CCCCC1 [Compound 25, N-(5-(cyclohexyloxy)-7,8-dioxo-7,8-dihydronaphthalen-1-yl)acetamide], the “IC50/IC50 (β-lapachone/Compoud)” value was <0.3. For O=C1C=C(OC2CCCCC2)c2cccc(O)c2C1=O [Compound 39, 4-(cyclohexyloxy)-8-hydroxynaphthalene-1,2-dione], the “IC50/IC50 (β-lapachone/Compoud)” value was 0.3~1. In the case of COCCOCCOCCOCCOC1=CC(=O)C(=O)c2c(NS(C)(=O)=O)cccc21 [Compound 56, N-(5-(2,5,8,11-tetraoxatridecan-13-yloxy)-7,8-dioxo-7,8-dihydronaphthalen-1-yl)methanesulfonamide], the “IC50/IC50 (β-lapachone/Compoud)” value is reported as <0.3. For CC(=O)Nc1cccc2c1C(=O)C(=O)C=C2OCCCO [Compound 27, N-(5-(3-hydroxypropoxy)-7,8-dioxo-7,8-dihydronaphthalen-1-yl)acetamide], the “IC50/IC50 (β-lapachone/Compoud)” value was <0.3. For CCC(CC)OC1=CC(=O)C(=O)c2c(NC(C)=O)cccc21 [Compound 52, N-(7,8-dioxo-5-(pentan-3-yloxy)-7,8-dihydronaphthalen-1-yl)acetamide], the “IC50/IC50 (β-lapachone/Compoud)” value was <0.3. With CC(C)OC1=CC(=O)C(=O)c2c(NS(=O)(=O)C(F)(F)F)cccc21 [Compound 23, 1,1,1-trifluoro-N-(5-isopropoxy-7,8-dioxo-7,8-dihydronaphthalen-1-yl)methanesulfonamide] the “IC50/IC50 (β-lapachone/Compoud)” value was <0.3. COC1=C(C)C(=O)C(=O)c2c(NC(C)=O)cccc21 [Compound 47, N-(5-methoxy-6-methyl-7,8-dioxo-7,8-dihydronaphthalen-1-yl)acetamide] was tested, and the “IC50/IC50 (β-lapachone/Compoud)” value was <0.3. CCCCOC1=CC(=O)C(=O)c2c(NC(C)=O)cccc21 [Compound 50, N-(5-butoxy-7,8-dioxo-7,8-dihydronaphthalen-1-yl)acetamide] was tested, and the “IC50/IC50 (β-lapachone/Compoud)” value was 1~2. With Cc1ccc(S(=O)(=O)Nc2cccc3c2C(=O)C(=O)C=C3OC(C)C)cc1 [Compound 17, N-(5-isopropoxy-7,8-dioxo-7,8-dihydronaphthalen-1-yl)-4-methylbenzenesulfonamide] the “IC50/IC50 (β-lapachone/Compoud)” value was <0.3. With CC(C)OC1=CC(=O)c2cccc(NC(=O)C(F)(F)F)c2C1=O [Compound 20, 2,2,2-trifluoro-N-(7-isopropoxy-5,8-dioxo-5,8-dihydronaphthalen-1-yl)acetamide] the “IC50/IC50 (β-lapachone/Compoud)” value was <0.3. In the case of CC(C)OC1=CC(=O)C(=O)c2cccc(OCCN3CCOCC3)c21 [Compound 42, 4-isopropoxy-5-(2-morpholinoethoxy)naphthalene-1,2-dione], the “IC50/IC50 (β-lapachone/Compoud)” value is reported as <0.3. With CC(C)OC1=CC(=O)C(=O)c2cc(F)ccc21 [Compound 3, 7-fluoro-4-isopropoxynaphthalene-1,2-dione] the “IC50/IC50 (β-lapachone/Compoud)” value was <0.3. For CC(C)OC1=CC(=O)C(=O)c2c(Cl)cccc21 [Compound 14, 8-chloro-4-isopropoxynaphthalene-1,2-dione], the “IC50/IC50 (β-lapachone/Compoud)” value was 0.3~1. In the case of CC(C)OC1=CC(=O)C(=O)c2cc(Br)ccc21 [Compound 1, 7-bromo-4-isopropoxynaphthalene-1,2-dione], the “IC50/IC50 (β-lapachone/Compoud)” value is reported as <0.3. For CC(=O)Nc1cccc2c1C(=O)C(OCCN1CCOCC1)=CC2=O [Compound 44, N-(7-(2-morpholinoethoxy)-5,8-dioxo-5,8-dihydronaphthalen-1-yl)acetamide], the “IC50/IC50 (β-lapachone/Compoud)” value was 0.3~1. CS(=O)(=O)Nc1cccc2c1C(=O)C(=O)C=C2OC1CCCCC1 [Compound 26, N-(5-(cyclohexyloxy)-7,8-dioxo-7,8-dihydronaphthalen-1-yl)methanesulfonamide] was tested, and the “IC50/IC50 (β-lapachone/Compoud)” value was <0.3. For CCCCCCCCOC1=CC(=O)C(=O)c2c(NS(C)(=O)=O)cccc21 [Compound 55, N-(5-(octyloxy)-7,8-dioxo-7,8-dihydronaphthalen-1-yl)methanesulfonamide], the “IC50/IC50 (β-lapachone/Compoud)” value was 1~2. In the case of Cc1cc(C)c2c(c1)C(=O)C(=O)C=C2OC(C)C [Compound 10, 4-isopropoxy-5,7-dimethylnaphthalene-1,2-dione], the “IC50/IC50 (β-lapachone/Compoud)” value is reported as <0.3. CC(C)OC1=CC(=O)C(=O)c2ccc(Br)cc21 [Compound 36, 6-bromo-4-isopropoxynaphthalene-1,2-dione] was tested, and the “IC50/IC50 (β-lapachone/Compoud)” value was <0.3. For CC(C)OC1=C(Cl)C(=O)C(=O)c2ccccc21 [Compound 13, 3-chloro-4-isopropoxynaphthalene-1,2-dione], the “IC50/IC50 (β-lapachone/Compoud)” value was <0.3. CC(C)OC1=CC(=O)C(=O)c2cc3c(cc21)OCO3 [Compound 9, 8-isopropoxynaphtho[2,3-d][1,3]dioxole-5,6-dione] was tested, and the “IC50/IC50 (β-lapachone/Compoud)” value was <0.3. For O=C1C=C(OC2CCCCC2)c2ccc(Br)cc2C1=O [Compound 2, 7-bromo-4-(cyclohexyloxy)naphthalene-1,2-dione], the “IC50/IC50 (β-lapachone/Compoud)” value was <0.3. With CCC(CC)OC1=CC(=O)C(=O)c2c(NS(C)(=O)=O)cccc21 [Compound 53, N-(7,8-dioxo-5-(pentan-3-yloxy)-7,8-dihydronaphthalen-1-yl)methanesulfonamide] the “IC50/IC50 (β-lapachone/Compoud)” value was <0.3. With CCCCCCCCOC1=CC(=O)C(=O)c2c(NC(C)=O)cccc21 [Compound 51, N-(5-(octyloxy)-7,8-dioxo-7,8-dihydronaphthalen-1-yl)acetamide] the “IC50/IC50 (β-lapachone/Compoud)” value was <0.3. With CC(C)Nc1cccc2c1C(=O)C(OC(C)C)=CC2=O [Compound 31, 2-isopropoxy-8-(isopropylamino)naphthalene-1,4-dione] the “IC50/IC50 (β-lapachone/Compoud)” value was <0.3.
